Common to all, as to type: cell-based
The target of one assay is T1, human TLR7 (Homo sapiens, UniProt Q9NYK1).
T1 sequence (Q9NYK1 27-1049): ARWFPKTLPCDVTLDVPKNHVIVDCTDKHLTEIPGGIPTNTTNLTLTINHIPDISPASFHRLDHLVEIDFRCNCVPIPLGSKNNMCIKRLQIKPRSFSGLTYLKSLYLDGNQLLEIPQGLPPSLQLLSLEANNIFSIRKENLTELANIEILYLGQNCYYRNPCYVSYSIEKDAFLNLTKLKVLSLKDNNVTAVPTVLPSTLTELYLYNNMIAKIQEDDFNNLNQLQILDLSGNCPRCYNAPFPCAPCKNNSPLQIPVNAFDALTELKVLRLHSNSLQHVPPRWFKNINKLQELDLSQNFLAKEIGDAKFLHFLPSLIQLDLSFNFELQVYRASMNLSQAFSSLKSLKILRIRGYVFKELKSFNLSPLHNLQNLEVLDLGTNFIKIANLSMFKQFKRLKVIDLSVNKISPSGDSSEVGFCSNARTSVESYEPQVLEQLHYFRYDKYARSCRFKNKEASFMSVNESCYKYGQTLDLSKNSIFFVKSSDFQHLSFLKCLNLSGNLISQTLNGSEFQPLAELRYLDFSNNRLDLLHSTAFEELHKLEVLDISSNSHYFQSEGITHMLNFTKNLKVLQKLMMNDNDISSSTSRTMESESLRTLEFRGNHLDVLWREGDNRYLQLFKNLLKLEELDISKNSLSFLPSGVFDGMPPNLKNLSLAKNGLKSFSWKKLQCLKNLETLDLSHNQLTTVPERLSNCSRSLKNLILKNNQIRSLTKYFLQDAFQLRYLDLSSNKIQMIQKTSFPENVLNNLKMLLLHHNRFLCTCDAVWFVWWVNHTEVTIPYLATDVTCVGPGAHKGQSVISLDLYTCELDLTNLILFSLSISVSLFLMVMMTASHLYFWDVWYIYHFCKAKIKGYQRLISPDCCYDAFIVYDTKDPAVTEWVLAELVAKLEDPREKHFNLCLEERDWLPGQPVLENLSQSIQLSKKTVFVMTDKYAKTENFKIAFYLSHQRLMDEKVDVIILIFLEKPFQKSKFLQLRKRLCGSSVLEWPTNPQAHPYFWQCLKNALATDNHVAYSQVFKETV
The assay can be described thus: TLR7 inhibition reporter assay (HEK-Blue cells, SEAP reporter). Particulars: HEK-Blue cells overexpressing human TLR7; stimulated with gardiquimod 7.5 μM; 22 hour incubation; SEAP readout. Summed up: (§1)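 HEK-Blue cells with NF-κB/AP-1-driven SEAP pre-treated 30 min with compound (0.05 nM–50 μM), then stimulated with gardiquimod 7.5 μM (TLR7), R848 15.9 μM (TLR8) or ODN2006 5 nM (TLR9). SEAP detected after 22 h at 37 °C; percent inhibition relative to agonist-plus-DMSO and known-inhibitor wells.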
On the technique in general: In a reporter assay the amount or activity of a reporter protein is the signal.

For the next assay, the target named is T2, human TLR8 (Homo sapiens, UniProt Q9NR97).
T2 sequence (Q9NR97 27-1041): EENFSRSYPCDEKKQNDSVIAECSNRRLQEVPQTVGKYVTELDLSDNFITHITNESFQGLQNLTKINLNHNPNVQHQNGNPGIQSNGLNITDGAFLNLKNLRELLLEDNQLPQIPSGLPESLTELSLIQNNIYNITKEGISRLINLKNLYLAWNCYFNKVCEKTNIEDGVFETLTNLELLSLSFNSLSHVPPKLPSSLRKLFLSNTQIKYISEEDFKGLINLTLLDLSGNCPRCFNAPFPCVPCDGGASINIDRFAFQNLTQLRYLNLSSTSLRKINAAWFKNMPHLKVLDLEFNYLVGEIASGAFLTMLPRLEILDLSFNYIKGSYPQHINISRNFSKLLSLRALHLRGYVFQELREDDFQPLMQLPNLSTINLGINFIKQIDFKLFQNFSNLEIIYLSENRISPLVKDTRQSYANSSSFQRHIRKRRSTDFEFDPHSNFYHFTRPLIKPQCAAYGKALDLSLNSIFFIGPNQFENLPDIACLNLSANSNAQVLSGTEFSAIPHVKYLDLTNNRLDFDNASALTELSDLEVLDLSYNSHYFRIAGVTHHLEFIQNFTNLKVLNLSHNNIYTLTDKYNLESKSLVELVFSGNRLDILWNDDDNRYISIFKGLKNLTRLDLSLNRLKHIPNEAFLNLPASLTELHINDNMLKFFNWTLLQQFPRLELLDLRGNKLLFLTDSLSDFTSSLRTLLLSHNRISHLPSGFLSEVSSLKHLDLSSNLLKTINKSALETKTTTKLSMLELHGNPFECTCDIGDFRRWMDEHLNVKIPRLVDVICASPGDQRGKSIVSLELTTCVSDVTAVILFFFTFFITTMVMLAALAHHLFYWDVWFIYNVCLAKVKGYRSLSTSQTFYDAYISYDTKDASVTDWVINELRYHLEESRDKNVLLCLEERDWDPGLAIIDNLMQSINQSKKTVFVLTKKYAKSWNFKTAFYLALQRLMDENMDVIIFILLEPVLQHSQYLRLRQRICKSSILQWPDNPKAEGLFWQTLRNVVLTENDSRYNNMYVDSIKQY
The assay can be described thus: TLR8 inhibition reporter assay (HEK-Blue cells, SEAP reporter). Conditions: HEK-Blue cells overexpressing human TLR8; stimulated with R848 15.9 μM; 22 hour incubation; SEAP readout. Summed up: as §1

The target of a further assay is T3, human TLR9 (Homo sapiens, UniProt Q9NR96).
T3 sequence (Q9NR96 26-1032): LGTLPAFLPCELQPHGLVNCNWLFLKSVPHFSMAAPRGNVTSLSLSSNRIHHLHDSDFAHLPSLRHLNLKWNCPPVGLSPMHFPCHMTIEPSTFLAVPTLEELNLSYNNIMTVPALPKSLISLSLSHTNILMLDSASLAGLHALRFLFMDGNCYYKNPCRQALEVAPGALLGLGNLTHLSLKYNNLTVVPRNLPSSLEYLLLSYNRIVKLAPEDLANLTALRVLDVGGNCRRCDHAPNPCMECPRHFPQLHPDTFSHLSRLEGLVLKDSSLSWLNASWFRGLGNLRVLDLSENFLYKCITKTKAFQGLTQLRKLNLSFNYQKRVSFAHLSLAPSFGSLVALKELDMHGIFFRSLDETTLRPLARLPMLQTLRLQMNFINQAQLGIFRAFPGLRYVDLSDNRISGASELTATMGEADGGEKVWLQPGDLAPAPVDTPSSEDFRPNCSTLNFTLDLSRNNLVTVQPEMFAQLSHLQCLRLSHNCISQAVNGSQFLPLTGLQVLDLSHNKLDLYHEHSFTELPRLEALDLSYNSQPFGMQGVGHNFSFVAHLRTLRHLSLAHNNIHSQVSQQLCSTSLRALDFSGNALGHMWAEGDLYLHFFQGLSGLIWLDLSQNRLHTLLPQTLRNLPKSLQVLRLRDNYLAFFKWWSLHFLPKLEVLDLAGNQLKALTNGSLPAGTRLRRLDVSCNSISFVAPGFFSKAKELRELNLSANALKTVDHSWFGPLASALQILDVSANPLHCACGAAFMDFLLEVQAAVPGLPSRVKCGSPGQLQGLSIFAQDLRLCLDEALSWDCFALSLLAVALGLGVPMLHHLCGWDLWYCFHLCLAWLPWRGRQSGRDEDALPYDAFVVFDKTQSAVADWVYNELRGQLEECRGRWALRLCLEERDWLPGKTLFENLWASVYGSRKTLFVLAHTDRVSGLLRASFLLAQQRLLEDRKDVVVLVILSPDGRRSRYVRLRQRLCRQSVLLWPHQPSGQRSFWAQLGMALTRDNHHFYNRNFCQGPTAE
The assay is described as follows: TLR9 inhibition reporter assay (HEK-Blue cells, SEAP reporter). Conditions: HEK-Blue cells overexpressing human TLR9; stimulated with ODN2006 5 nM; 22 hour incubation; SEAP readout. In short, it runs like this:
as §1

These results are taken from US12486267B2, “Imidazo[1,2-A]pyridine and [1,2,4]triazolo[1,5-A]pyridine derivatives as TLR9 inhibitors for the treatment of fibrosis” (BRISTOL-MYERS SQUIBB COMPANY, priority 2020, dated 2025).

Usually IC50 stands for the midpoint of a concentration-inhibition curve. Read a high IC50 as weaker potency.

As to `CC(C)N1C2CCC1CC(N1CCC(c3cc(F)c4nc(-c5ccc(S(C)(=O)=O)cc5)cn4c3)CC1)C2` (single isomer, unassigned) [Example 68, 8-fluoro-6-(1-(8-isopropyl-8-azabicyclo[3.2.1]octan-3-yl)piperidin-4-yl)-2-(4-(methylsulfonyl)phenyl)imidazo[1,2-a]pyridine], the IC50 against human TLR7 was 8200 nM; against human TLR8, above 50000 nM; against human TLR9, 110 nM.

In the case of `COc1ccc(-c2cn3c(n2)CC[C@H](C2CCN(C4CC5CCC(C4)N5C(C)C)CC2)C3)cc1OC` (single isomer, unassigned) [Example 134], the IC50 on human TLR7 is above 50000 nM; against human TLR8, above 50000 nM; against human TLR9, 67 nM.

On to `COc1ccc(-c2cn3c(n2)CC[C@@H](C2CCN(C4CC5CCC(C4)N5CC(C)C)CC2)C3)cc1OC` (single isomer, unassigned) [Example 78], for which the IC50 is 8600 nM against human TLR7, above 25000 nM against human TLR8 and 108 nM on human TLR9.

Regarding `COc1ccc(-c2cn3c(n2)CCC(C2CCN(C4CC5(C4)CN(C4CCC4)C5)CC2)C3)cc1OC` (racemic) [Example 48, 6-(1-(2-cyclobutyl-2-azaspiro[3.3]heptan-6-yl)piperidin-4-yl)-2-(3,4-dimethoxyphenyl)-5,6,7,8-tetrahydroimidazo[1,2-a]pyridine], the IC50 is 2000 nM against human TLR7, above 50000 nM at human TLR8 and 112 nM against human TLR9.

In the case of `CC(C)CN1C2CCC1CC(N1CCC([C@@H]3CCc4nc(-c5ccc(S(C)(=O)=O)cc5)cn4C3)CC1)C2` (single isomer, unassigned) [Example 82], the values for the IC50 on human TLR7, at human TLR8 and against human TLR9 were 9200 nM, above 50000 nM and 21 nM, respectively.

For the molecule `COc1ccc(-c2cn3c(n2)CC[C@@H](C2CCN(C4CC5CCC(C4)N5C(C)C)CC2)C3)cc1OC` (single isomer, unassigned) [Example 136], the results for the IC50 against human TLR7, at human TLR8 and against human TLR9 were 15200 nM, above 25000 nM and 78 nM, respectively.

As for `COc1ccc(-c2cn3c(n2)CCC(C2CCN(C4CCN(C5CC5)CC4)CC2)C3)cc1OC` (single isomer, unassigned) [Example 38, 6-(1′-cyclopropyl-[1,4′-bipiperidin]-4-yl)-2-(3,4-dimethoxyphenyl)-5,6,7,8-tetrahydroimidazo[1,2-a]pyridine], the IC50 against human TLR7 is 6000 nM; against human TLR8, above 50000 nM; against human TLR9, 45 nM.

For `COc1ccc(-c2cn3cc(C4CCN(C5CC6CCC(C5)N6CC(C)C)CC4)cc(C)c3n2)cc1OC` (single isomer, unassigned) [Example 19, 2-(3,4-dimethoxyphenyl)-6-(1-(8-isobutyl-8-azabicyclo[3.2.1]octan-3-yl)piperidin-4-yl)-8-methylimidazo[1,2-a]pyridine], the values for the IC50 at human TLR7, against human TLR8 and at human TLR9 were 2400 nM, above 50000 nM and 58 nM, respectively.

`COc1ccc(-c2cn3c(n2)CCC(C2CCN(C4CCN(C(=O)C(C)C)CC4)CC2)C3)cc1OC` (single isomer, unassigned) [Example 40, 1-(4-(2-(3,4-dimethoxyphenyl)-5,6,7,8-tetrahydroimidazo[1,2-a]pyridin-6-yl)-[1,4′-bipiperidin]-1′-yl)-2-methylpropan-1-one]: the IC50 on human TLR7 is 38000 nM; at human TLR8, above 50000 nM; against human TLR9, 185 nM.

Regarding `COc1ccc(-c2cn3cc(C4CCN(C5CC6CCC(C5)N6C(C)C)CC4)cc(C)c3n2)cc1OC` (single isomer, unassigned) [Example 22, 2-(3,4-dimethoxyphenyl)-6-(1-(8-isopropyl-8-azabicyclo[3.2.1]octan-3-yl)piperidin-4-yl)-8-methylimidazo[1,2-a]pyridine], the figures for the IC50 against human TLR7, against human TLR8 and on human TLR9 were 1200 nM, above 50000 nM and 30 nM, respectively.

`Cc1cc(C2CCN(C3CC4CCC(C3)N4C(C)C)CC2)cn2cc(-c3ccc(S(C)(=O)=O)cc3)nc12` (single isomer, unassigned) [Example 63, 6-(1-(8-isopropyl-8-azabicyclo[3.2.1]octan-3-yl)piperidin-4-yl)-8-methyl-2-(4-(methylsulfonyl)phenyl)imidazo[1,2-a]pyridine]: the results for the IC50 on human TLR7, at human TLR8 and against human TLR9 were 5800 nM, 9500 nM and 97 nM, respectively.

Regarding `CC(C)N1C2CCC1CC(N1CCC(c3cc(F)c4nc(-c5ccc(S(C)(=O)=O)cc5)cn4c3)CC1)C2` (single isomer, unassigned) [Example 69, 8-fluoro-6-(1-(8-isopropyl-8-azabicyclo[3.2.1]octan-3-yl)piperidin-4-yl)-2-(4-(methylsulfonyl)phenyl)imidazo[1,2-a]pyridine], the IC50 at human TLR7 was 3400 nM; against human TLR8, above 50000 nM; against human TLR9, 26 nM.
